“Also recorded” adds a separate entry of the source.
How the values were obtained:
COS-I cells = experiment: FRAP of Src-GFP on macropinosomes; assay type: cell-based; settings: cycloheximide-treated COS-I cells, pretreated 10 min with 1 mM NEM or 0.5% tannic acid
Protocol: A-D: FRAP analysis of Src-GFP was performed in COS-I cells treated with cycloheximide. Cells expressing Src-GFP were pretreated with nothing (control) (A), I mM NEM (B), or 0.5% tannic acid (C) for 10 min. Enclosed areas (yellow circles) were photobleached and cells were monitored at 5-sec (A and C) or 60-sec intervals (B) for 10 min. Mean fluorescence intensities on macropinosomes were measured, and results are means±SD (control, n=4; NEM, n=3; Tannic acid, n=5). N, nucleus. Bars 5 μm. E: Equal amounts of lysates from S100 and P100 fractions of Src-GFP-expressing COS-I cells were analyzed by Western blotting with anti-Src, anti-cPLA2 (cytosol marker), and anti-desmoglein (plasma membrane marker) antibodies.
For live-cell imaging, cells cultured in 35-mm glass-based dishes were transiently transfected with plasmid DNA on the preceding day. Time-lapse monitoring was performed using a Fluoview FV5OO with a 40×1.00 oil objective. Images were obtained at low power laser (0.3-3.0% laser) using the 488 nm line of an argon laser. FRAP was performed as described (Kasahara et at., 2004). If necessary, COS-I cells were treated with 200 μg/ml cycloheximide (Sigma-Aldrich) for 2 h before images were obtained. […] Mean fluorescence intensities were quantitated using Fluoview Tiempo time course version 4.2 software. […]

10T½ cells = experiment: PMA-stimulated macropinocytosis (RITC-dextran-labeled macropinosomes); assay type: cell-based, mouse; settings: 10T½ cells pretreated with 5 μM SU6656 for 30 min, then 200 nM PMA plus 1 mg/ml RITC-dextran for 20 min
Protocol: Data represent means±SD from three independent experiments. […] For comparison, the open bar is a reproduction of the data of Src-CFP in FIG. 2D. B: COS-1 cells transfected with c-Src plus Src(SH4-Unique)-GFP were cultured for 24 h and visualized with anti-Src (red) immunofluorescence and GFP fluorescence (green). C: 10T½ cells transfected with Src(SH4-Unique)-GFP (control) were treated with 200 nM PMA plus 1 mg/ml RITC-dextran for 15 min (1 PMA). D: 10T½ cells expressing Src(SH4-Unique)-GFP were stimulated with 200 nM PMA and cells were monitored at 30-sec intervals. The time of PMA addition is indicated as 0 sec (00′00″). E: 10T½ cells expressing Lyn(SH4-Unique)-GFP were treated with 200 nM PMA for 30 min and imaged by GFP fluorescence and Nomarski optics. F: 10T½ cells were pretreated with 5 μM SU6656 or none for 30 min and then stimulated with 200 nM PMA plus 1 mg/ml RITC-dextran for 20 min. […] Data represent means±SD from three independent experiments. […] Arrows indicate macropinosomes. N, nucleus. Bars, 10 μm. Macropinosomes wider than 2 μm labeled by c-Src or mutants were counted. All values were expressed as means±D from three independent experiments. Rhodamine B-isothiocyanate (RITC)-dextran (Mr 70,000), PMA, and wortmannin were from Sigma-Aldrich. SU6656 (Blake et al., 2000) was from Calbiochem. EGF was a kind gift of M. N. Fukuda.

HeLa cells = experiment: EGF-induced macropinosome formation marked with Src(SH4-Unique)-GFP; assay type: cell-based, human; settings: serum-starved HeLa cells expressing Src(SH4-Unique)-GFP, pretreated 30 min with 5 μM SU6656 or 200 nM wortmannin, then 50 ng/ml EGF for 15 min
Protocol: During stimulation, cells were treated with 1 mg/ml RITC-dextran (B). White arrows indicate macropinosomes. […] The number of macropinosomes associated with Src(SH4-Unique)-GFP per 200 cells is shown. Data represent means±SD from three independent experiments. […] Equal amounts of lysates (input lysates) were analyzed by Western blotting with anti-pTyr and anti-actin antibodies. c-Src immunoprecipitates from lysates were analyzed by Western blotting with anti-Src[Y^418] and anti-Src antibodies. c-Src kinase activity was quantitated by measuring signal intensity using anti-Src[pY^418] antibody and normalized to the corresponding signal intensity detected by anti-Src. Results are expressed as mean values (fold) relative to the specific activity of c-Src in unstimulated control cells. […] The number of Src:(SH4-Unique)-GFP-labeled macropinosomes per 200 HeLa (left) or 100 A431 (right) cells was counted. Data represent means±SD from three independent experiments. […] F: Lysates were analyzed by Western blotting with anti-Src[Y^418], anti-Src, anti-pTyr, and anti-actin antibodies. […] White arrows indicate macropinosomes containing RITC-dextran. […] I: Co-localization of RITC-dextran with cathepsin D in macropinosomes was quantitated. […] Macropinosomes wider than 2 μm labeled by c-Src or mutants were counted. All values were expressed as means±D from three independent experiments. […]

c-Src = molecular target: T1, c-Src (Homo sapiens, UniProt P12931); experiment: c-Src kinase activity in immunoprecipitates by Western blotting with anti-Src[pY418]; assay type: cell-based; settings: serum-starved HeLa cells pretreated with 5 μM SU6656, EGF for 15 min
T1 construct: endogenous in cells; host or cells: HeLa (serum-starved, EGF-stimulated)
T1 sequence (P12931 whole entry): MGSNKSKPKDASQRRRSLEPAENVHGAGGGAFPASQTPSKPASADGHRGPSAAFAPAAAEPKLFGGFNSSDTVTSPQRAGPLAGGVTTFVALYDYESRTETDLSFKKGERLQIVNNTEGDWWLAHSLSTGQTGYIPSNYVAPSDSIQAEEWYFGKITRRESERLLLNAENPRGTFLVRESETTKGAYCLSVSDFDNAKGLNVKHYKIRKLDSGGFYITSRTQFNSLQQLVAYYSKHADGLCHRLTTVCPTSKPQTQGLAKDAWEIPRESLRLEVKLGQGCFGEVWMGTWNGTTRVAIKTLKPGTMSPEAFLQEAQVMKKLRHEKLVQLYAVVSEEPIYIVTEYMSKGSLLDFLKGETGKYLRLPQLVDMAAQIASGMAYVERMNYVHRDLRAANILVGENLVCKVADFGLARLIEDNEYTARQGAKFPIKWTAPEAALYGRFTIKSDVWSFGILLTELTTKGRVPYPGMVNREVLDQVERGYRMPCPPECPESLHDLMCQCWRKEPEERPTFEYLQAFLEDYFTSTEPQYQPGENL
Protocol: Results are expressed as mean values (fold) relative to the specific activity of c-Src in unstimulated control cells. […] F: Lysates were analyzed by Western blotting with anti-Src[Y^418], anti-Src, anti-pTyr, and anti-actin antibodies. […] Western blotting and immunoprecipitation were as described (Hirao et al., 1997; Mera et al., 1999; Yamaguchi et al., 2001; Kasahara et al., 2004). Cell lysates were prepared in Triton X-100 lysis buffer (50 mM HEPES, pH 7.4, 10% glycerol, 1% Triton X-100, 4 mM EDTA, 100 mM NaF, and 1 mM Na3VO4) containing protease inhibitors. For immunoprecipitation, lysates were incubated with protein G-Sepharose beads (Amersham) precoated with anti-Src (#327) overnight at 4° C.

EGFR = EGFR (Homo sapiens, UniProt P00533); experiment: EGFR activation by Western blotting of lysates with anti-pTyr; assay type: cell-based; settings: serum-starved HeLa cells pretreated with 5 μM SU6656, EGF for 15 min
Sequence of EGFR (P00533 25-1210): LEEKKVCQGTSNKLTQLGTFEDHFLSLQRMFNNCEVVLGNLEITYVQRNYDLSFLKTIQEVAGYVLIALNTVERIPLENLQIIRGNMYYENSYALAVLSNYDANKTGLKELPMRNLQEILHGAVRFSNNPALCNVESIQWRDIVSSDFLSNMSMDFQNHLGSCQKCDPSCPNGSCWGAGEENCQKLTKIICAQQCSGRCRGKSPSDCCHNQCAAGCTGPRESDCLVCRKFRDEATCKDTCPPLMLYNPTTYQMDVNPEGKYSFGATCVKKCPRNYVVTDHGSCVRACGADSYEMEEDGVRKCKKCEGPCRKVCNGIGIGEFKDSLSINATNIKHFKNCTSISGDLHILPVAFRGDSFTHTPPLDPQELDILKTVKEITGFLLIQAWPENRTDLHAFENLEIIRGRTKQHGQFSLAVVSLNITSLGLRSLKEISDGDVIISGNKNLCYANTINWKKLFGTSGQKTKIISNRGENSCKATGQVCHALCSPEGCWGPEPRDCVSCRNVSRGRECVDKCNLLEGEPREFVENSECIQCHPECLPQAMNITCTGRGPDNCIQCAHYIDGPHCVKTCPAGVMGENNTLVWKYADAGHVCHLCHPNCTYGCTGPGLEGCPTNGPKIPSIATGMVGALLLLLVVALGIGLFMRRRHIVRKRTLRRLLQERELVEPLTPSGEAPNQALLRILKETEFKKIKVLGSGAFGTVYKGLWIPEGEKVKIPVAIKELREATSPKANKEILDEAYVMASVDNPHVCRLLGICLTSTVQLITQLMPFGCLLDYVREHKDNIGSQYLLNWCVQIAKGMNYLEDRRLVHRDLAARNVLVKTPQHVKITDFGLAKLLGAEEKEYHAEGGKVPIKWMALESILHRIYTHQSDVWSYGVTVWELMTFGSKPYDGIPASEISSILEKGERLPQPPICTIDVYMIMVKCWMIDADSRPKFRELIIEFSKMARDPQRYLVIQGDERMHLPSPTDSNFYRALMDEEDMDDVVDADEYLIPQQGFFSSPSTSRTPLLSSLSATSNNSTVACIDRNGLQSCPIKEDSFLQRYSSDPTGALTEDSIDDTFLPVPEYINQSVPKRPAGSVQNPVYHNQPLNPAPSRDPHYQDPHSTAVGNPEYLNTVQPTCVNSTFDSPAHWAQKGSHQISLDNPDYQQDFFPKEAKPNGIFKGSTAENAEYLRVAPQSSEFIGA
Protocol: F: Lysates were analyzed by Western blotting with anti-Src[Y^418], anti-Src, anti-pTyr, and anti-actin antibodies. […] Cell lysates were prepared in Triton X-100 lysis buffer (50 mM HEPES, pH 7.4, 10% glycerol, 1% Triton X-100, 4 mM EDTA, 100 mM NaF, and 1 mM Na3VO4) containing protease inhibitors.

effect on EGFR activation (EGFR)	Compound	inhibition of fluorescence recovery of Src-GFP on macropinosomes (COS-I cells)	inhibition of PMA-stimulated macropinocytosis (10T½ cells)	inhibition of EGF-induced macropinosome formation (HeLa cells)	effect on c-Src activity (c-Src)
–	CCN1C(=O)C=CC1=O [NEM, N-ethyl maleimide]	inhibited	–	–	–
without affecting	CN(C)S(=O)(=O)c1ccc2c(c1)/C(=C/c1cc3c([nH]1)CCCC3)C(=O)N2 [SU6656]	–	not significant; also recorded: not inhibited; also recorded: did not inhibit	partly inhibited	decreased c-Src activity below basal levels
–	O=C(OC[C@H]1O[C@@H](OC(=O)c2cc(O)c(O)c(OC(=O)c3cc(O)c(O)c(O)c3)c2)[C@H](OC(=O)c2cc(O)c(O)c(OC(=O)c3cc(O)c(O)c(O)c3)c2)[C@@H](OC(=O)c2cc(O)c(O)c(OC(=O)c3cc(O)c(O)c(O)c3)c2)[C@@H]1OC(=O)c1cc(O)c(O)c(OC(=O)c2cc(O)c(O)c(O)c2)c1)c1cc(O)c(O)c(OC(=O)c2cc(O)c(O)c(O)c2)c1 [tannic acid]	partly inhibited	–	–	–
